# Where two headings read alike, the source gives them in different places.
# Legend:
# Parameters in all cases: species or system Acyrthosiphon pisum
# [1] = target: T1, A. pisum native nAChRs, [125I]-alpha-bungarotoxin binding sites (alpha-Bgt-sensitive); conditions: PBS pH 7.2, 0.1% BSA, room temperature, 4 h, low-affinity site, Cheng-Prusoff, table header prints nM, text and IC50 support µM
# T1 construct: gene Apisumα1
# [2] = target: T2, A. pisum native nAChRs, [3H]-imidacloprid binding sites (alpha-Bgt-insensitive); assay: [3H]-IMI competition binding, filtration; conditions: 25 nM [3H]-IMI, 10 mM Tris-HCl pH 7.4, room temperature, 4 h, low-affinity site; for Ki: Cheng-Prusoff, read-out: [^3H]-IMI / % of high affinity / Ki; for IC50: read-out: [^3H]-IMI / Bmax (fmol/mg) / IC50
# T2 construct: gene Apisumα1
# Description: [3H]-IMI competition binding, filtration on A. pisum native nAChRs, [3H]-imidacloprid binding sites (alpha-Bgt-insensitive)
# [3] = target: T2, A. pisum native nAChRs, [3H]-imidacloprid binding sites (alpha-Bgt-insensitive); assay: [3H]-IMI saturation binding, filtration; conditions: 10 mM Tris-HCl pH 7.4, room temperature, 4 h; high-affinity site of two-site fit; labelled compound; read-out: [^3H]-IMI / Kd (nM) / assay level
# Description: [3H]-IMI saturation binding, filtration on A. pisum native nAChRs, [3H]-imidacloprid binding sites (alpha-Bgt-insensitive)
# [4] = apparent Ki, possibly not strictly competitive
# [5] = possibly not strictly competitive
SMILES,Ki ([1]; 0.08 nM [125I]-alpha-Bgt) [nM],"Ki [2, 4] [nM]","IC50 [2, 5] [nM]",Ki ([1]; 0.6 nM [125I]-alpha-Bgt) [nM],Ki [2] [nM],IC50 [2] [nM],Kd [3] [nM]
CN/C(=N\[N+](=O)[O-])NCc1cnc(Cl)s1 [clothianidin],180 ± 50,127 ± 42.5,203 ± 68,–,–,–,–
O=[N+]([O-])N=C1NCCN1Cc1ccc(Cl)nc1 [imidacloprid],–,–,–,14600 ± 1130,38.1 ± 6.88,61 ± 11,0.16 ± 0.04
CN1COCN(Cc2cnc(Cl)s2)C1=N[N+](=O)[O-] [thiamethoxam],1530 ± 650,1050 ± 63.1,1680 ± 101,–,–,–,–

# Reference: paper PMC4011867 (PLoS ONE, 2014)
